Experimental data reported in patent US5637582A, “Peripheral circulation improving agent” (priority 1992, dated 1997).

Key:
femoral artery [1] = experiment: Increase in femoral arterial blood flow in anesthetized dogs, cumulative i.v. dosing (Experimental Example 1); format: in vivo, dog; details: 60 min after administration
Method: (§1) Adult dogs (one group consisting of a dog) were intravenously given the test compound under anesthesia and artificial respiration successively at intervals of 60 minutes so that the dose can be 10, 30, 100 and 300 μg/kg body weight, and the blood flow of femoral artery was measured with a time course. […] An increase in the femoral arterial blood flow was calculated by subtracting the blood flow before the administration of the first dose of test compound as the standard value (the base line) from that 60 minutes after each administration.

femoral artery [2] = experiment: Time course of femoral arterial blood flow in dogs after i.v. administration (Experimental Example 2); format: in vivo, dog
femoral artery [3] = experiment: Maximum increase in femoral arterial blood flow in anesthetized dogs, cumulative i.v. dosing (Experimental Example 3); format: in vivo, dog; details: maximum during 60 min
Method: as §1, with “consisting of 5 dogs) were intravenously” for “consisting of a dog) were intravenously”, “10, 30, 100, 300 and 1000” for “10, 30, 100 and 300”, “300 and 1000 μg/kg body” for “100 and 300 μg/kg body”, “from that of maximum during an interval of 60 minutes” for “from that 60 minutes”

femoral artery [4] = experiment: Change of femoral arterial blood flow in anesthetized dogs (Experimental Example 4); format: in vivo, dog; details: 100 μg/kg i.v.
Method: (§2) Each test compound was intravenously administered to adult dogs (one group consisting of 2 or 4 dogs) under anesthesia and artificial respiration at a dose of 100 μg/kg body weight. Femoral arterial blood flow, vertebral arterial blood flow and arterial blood pressure were measured 1, 3, 5, 10, 20 and 30 minutes after the administration. The femoral arterial blood flow and vertebral arterial blood flow were measured with an electromagnetic blood flowmeter (manufactured by Nihon Koden, MFV-2100, trade name) through a flow probe attached to the femoral artery or vertebral artery. The arterial blood pressure was measured with a pressure transducer (manufactured by Millar, MICRO-TIP, Model SPC-350) through a catheter attached to the brachial artery.
(§3) Changes of the femoral arterial blood flow, vertebral arterial blood flow and arterial blood pressure were estimated by comparing the values measured before and after the administration of the test compound.

arterial blood pressure [5] = system: arterial blood pressure; set-up: species or system male SD rat; details: rat, in vivo
Method: (Lower limbs peripheral circulation disorder model due to hind leg cooling: Model of Raynaud's disease) […] TP-200T, trade name) through a catheter attached to the artery. […] After the operation, at the time that the state became stable, the left hind leg was exposed to a perfused solution at 10° C. to decrease the femoral arterial blood flow. […] In the case of Beraprost Na, continuous injection in an amount of […] was carried out after 30 minutes from cooling. […] The present model is disclosed, for example, in Nishio et al, "Effect of Beraprost Sodium on Peripheral Circulatory Disturbances Induced by Various Stimuli", Arzneim.-Forsch./Drug Res., 39 (II), Nr. 10 (1989), pp. 1229-1234. Note particularly the section "2.4. Sphygmometry in rat hind paw", at page 1230.

[6] = system: right anterior tibial muscle; experiment: Abdominal aorta knot-anterior tibial muscle contraction model: model of Buerger's disease (Experimental Example 6); format: in vivo, rat; set-up: Change in contraction of the right anterior tibial muscle: unit not given here; details: 10 mg/kg/day p.o. 2 weeks
Method: (Abdominal aorta knot-anterior tibial muscle contraction model: Model of Buerger's disease)
Rats were previously divided into four groups (Group I: sham operation+5 ml/kg/day of distilled water, Group II: sham operation+10 mg/kg/day of the test compound A, Group III: abdominal aorta knot+5 ml/kg/day of distilled water, and Group IV: abdominal aorta knot+10 mg/kg/day of the test compound A), and operated under anesthesia, 10 mg/kg/day of the test compound A or 5 ml/kg/day of distilled water was orally administered to respective rats, to which an abdominal aorta was knotted or a sham operation was applied, for 2 weeks. Thereafter, a catheter was inserted into a trachea to secure airway under anesthesia. A skin at the right hind leg was cut to expose a muscle and a right anterior tibial muscle was isolated. After the operation, at the time that the state became stable, 10 mg/kg of the test compound A or 1 ml/kg of 0.25% CMC was administered into a duodenum. After 60 minutes from the administration, a tendon of the right anterior tibial muscle was connected with a transducer and the right anterior tibial muscle was directly stimulated electrically with platinum electrodes at 0.5 Hz to obtain a Force-Current curve. Then, electrical stimulation was carried out with a current which submaximally contracted the right anterior tibial muscle and a stimulation frequency of 1.5 Hz for 30 minutes to observe the progress. […]

hind leg edema = experiment: Hind leg frostbite model: model of Raynaud's disease (Experimental Example 7); format: in vivo, male SD rat
Method: (Hind leg frostbite model: Model of Raynaud's disease)
Left hind leg of male SD rat (one group: 3 to 5 rats) was dipped in dry ice-ethanol for 2 seconds, and after 30 minutes, 30 mg/kg of a test compound dissolved in pure water was administered to the rat and then orally administered twice a day for 6 days continuously. At the final day of the experiment, volumes of both hind legs (below ankle joint) of the rat were measured by a water substitution method and an edema ratio was calculated from the following equation. Also, an inhibition ratio of the test compound administered group was obtained by comparing the edema ratio of the group in which the test compound was not administered. [formula]
The present model is disclosed, for example, in Hayashi et al, "Pharmacological Studies on Niceritrol (10), The Effects on Experimental Models of Peripherally Circulatory Insufficiency", Applied Pharmacology, 24 (6): 859-864 (1982), noting particularly the section "2. Effect on an experimental frostbite model" on page 860.

mouse = experiment: Acute oral toxicity in mouse; format: in vivo; details: 1000 mg/kg oral, even after 2 days
From the text: Furthermore, a (-)-cis-1,5-benzothiazepine derivative according to formula (I) has low toxicity and can be used safely.

arterial blood pressure [7] = experiment: Change of arterial blood pressure in anesthetized dogs (Experimental Example 4); details: 100 μg/kg i.v.
Method: as §2, §3

[8] = 30 mg/kg, orally twice a day for 6 days

CC(=O)O[C@@H]1C(=O)N(CCN(C)C)c2ccc(C)cc2S[C@@H]1c1ccc(C)cc1 [Compound A]
Increase in femoral arterial blood flow (femoral artery [1]; 10 μg/kg i.v.): 13 mL/min
Increase in femoral arterial blood flow (femoral artery [1]; 30 μg/kg i.v.): 30 mL/min
Increase in femoral arterial blood flow (femoral artery [1]; 100 μg/kg i.v.): 34 mL/min
Increase in femoral arterial blood flow (femoral artery [1]; 300 μg/kg i.v.): 32 mL/min
Blood flow (femoral artery) (femoral artery [2]; 100 μg/kg i.v., 30 min): 136.3 mL/min
Increase in blood flow (femoral artery) (femoral artery [2]; 100 μg/kg i.v., 30 min): 55.5 mL/min
Blood flow (femoral artery) (femoral artery [2]; 100 μg/kg i.v., 60 min): 146.3 mL/min
Increase in blood flow (femoral artery) (femoral artery [2]; 100 μg/kg i.v., 60 min): 65.5 mL/min
Blood flow (femoral artery) (femoral artery [2]; 100 μg/kg i.v., 120 min): 143.5 mL/min
Increase in blood flow (femoral artery) (femoral artery [2]; 100 μg/kg i.v., 120 min): 62.8 mL/min
Blood flow (femoral artery) (femoral artery [2]; 100 μg/kg i.v., 180 min): 141.3 mL/min
Increase in blood flow (femoral artery) (femoral artery [2]; 100 μg/kg i.v., 180 min): 60.5 mL/min
Blood flow (femoral artery) (femoral artery [2]; 100 μg/kg i.v., 240 min): 141.5 mL/min
Increase in blood flow (femoral artery) (femoral artery [2]; 100 μg/kg i.v., 240 min): 60.8 mL/min
Blood flow (femoral artery) (femoral artery [2]; 100 μg/kg i.v., 300 min): 136.3 mL/min
Increase in blood flow (femoral artery) (femoral artery [2]; 100 μg/kg i.v., 300 min): 55.5 mL/min
Blood flow (femoral artery) (femoral artery [2]; before administration (baseline)): 80.8 mL/min
Increase in femoral arterial blood flow (femoral artery [3]; 10 μg/kg i.v.): 5.6 mL/min
Increase in femoral arterial blood flow (femoral artery [3]; 30 μg/kg i.v.): 40.4 mL/min
Increase in femoral arterial blood flow (femoral artery [3]; 100 μg/kg i.v.): 55.2 mL/min
Increase in femoral arterial blood flow (femoral artery [3]; 300 μg/kg i.v.): 61.4 mL/min
Femoral Arterial Blood Flow change (femoral artery [4]; 1 min): 3.5 Δ ml/min
Femoral Arterial Blood Flow change (femoral artery [4]; 3 min): 5.5 Δ ml/min
Femoral Arterial Blood Flow change (femoral artery [4]; 5 min): 7.8 Δ ml/min
Femoral Arterial Blood Flow change (femoral artery [4]; 10 min): 13.0 Δ ml/min
Femoral Arterial Blood Flow change (femoral artery [4]; 20 min): 21.5 Δ ml/min
Femoral Arterial Blood Flow change (femoral artery [4]; 30 min): 28.0 Δ ml/min
AUC60 of the femoral arterial blood flow (femoral artery [4]; 60 minutes after administration): 1538.4 mL
femoral arterial blood flow increasing activity (femoral artery [4]; even after 30 minutes, in words): excellent femoral arterial blood flow increasing activity
Mean Arterial Pressure change (arterial blood pressure [5]): 0.00 Δ mmHg
Time (min) until 20A% contraction ([6]; Group II: sham operation): 16.65 ± 2.99 min
Change in contraction of the right anterior tibial muscle ([6]; Group II: sham operation, 1 min): 3.29
Change in contraction of the right anterior tibial muscle ([6]; Group II: sham operation, 3 min): 1.71
Change in contraction of the right anterior tibial muscle ([6]; Group II: sham operation, 5 min): -1.29
Change in contraction of the right anterior tibial muscle ([6]; Group II: sham operation, 10 min): -12.88
Change in contraction of the right anterior tibial muscle ([6]; Group II: sham operation, 15 min): -20.91
Change in contraction of the right anterior tibial muscle ([6]; Group II: sham operation, 20 min): -25.66
Change in contraction of the right anterior tibial muscle ([6]; Group II: sham operation, 30 min): -30.19
Time (min) until 20A% contraction ([6]; Group IV: abdominal aorta knot): 17.27 ± 3.70 min
Change in contraction of the right anterior tibial muscle ([6]; Group IV: abdominal aorta knot, 1 min): 2.44
Change in contraction of the right anterior tibial muscle ([6]; Group IV: abdominal aorta knot, 3 min): -1.04
Change in contraction of the right anterior tibial muscle ([6]; Group IV: abdominal aorta knot, 5 min): -4.35
Change in contraction of the right anterior tibial muscle ([6]; Group IV: abdominal aorta knot, 10 min): -15.46
Change in contraction of the right anterior tibial muscle ([6]; Group IV: abdominal aorta knot, 15 min): -21.82
Change in contraction of the right anterior tibial muscle ([6]; Group IV: abdominal aorta knot, 20 min): -25.98
Change in contraction of the right anterior tibial muscle ([6]; Group IV: abdominal aorta knot, 30 min): -30.17
% Inhibition of edema (hind leg edema; [8]): 27%
Edema (hind leg edema; [8]): 32 ± 8%
edema inhibition activity (hind leg edema; rat hind leg frostbite model, in words): showed edema inhibition activity
lethal toxicity (mouse): no lethal toxicity was observed
Arterial Blood Pressure change (side effects) (arterial blood pressure [7]; 1 min): -1.3 ΔmmHg
Arterial Blood Pressure change (side effects) (arterial blood pressure [7]; 3 min): -0.8 ΔmmHg
Arterial Blood Pressure change (side effects) (arterial blood pressure [7]; 5 min): -1.8 ΔmmHg
Arterial Blood Pressure change (side effects) (arterial blood pressure [7]; 10 min): -1.8 ΔmmHg
Arterial Blood Pressure change (side effects) (arterial blood pressure [7]; 20 min): -2.3 ΔmmHg
Arterial Blood Pressure change (side effects) (arterial blood pressure [7]; 30 min): -0.5 ΔmmHg
effect on arterial blood pressure (arterial blood pressure [7]; G and H: one minute after, in words): substantially no effect
